Experimental data reported in ChEMBL document CHEMBL3045468, “I2 catalyzed FriedelCrafts alkylation reaction of substituted anilines with ninhydrin: formation of novel products and their antimicrobial evaluation” (2013).
In brackets after ≈: the same amount, converted by molar mass.

Tests used:
Type in all cases: functional
Bacillus pumilus = test: Antibacterial activity against Bacillus pumilus 11778 clinical isolate assessed as growth inhibition after 24 hr by agar dilution method; settings: Bacillus pumilus, 11778, 24 h
Shigella dysenteriae = test: Antibacterial activity against Shigella dysenteriae 15 clinical isolate assessed as growth inhibition after 24 hr by agar dilution method; settings: Shigella dysenteriae, 15, 24 h
Staphylococcus aureus = test: Antibacterial activity against Staphylococcus aureus 29737 clinical isolate assessed as growth inhibition after 24 hr by agar dilution method; settings: Staphylococcus aureus, 29737, 24 h

CC1(C)S[C@@H]2[C@H](NC(=O)[C@H](N)c3ccc(O)cc3)C(=O)N2[C@H]1C(=O)O [AMOXICILLIN]
MIC (Bacillus pumilus): 500 µg/mL (≈ 1370 µM) | MIC (Shigella dysenteriae): 10000 µg/mL (≈ 27400 µM) | MIC (Staphylococcus aureus): 500 µg/mL (≈ 1370 µM)
